# Results published in patent publication US10364263B2, “Cyclic phosphates and cyclic phosphoramidates for the treatment of neurologic disorders” (Retrophin, Inc., priority 2015, dated 2019).
# Test system: PANK2 silenced human neuroblastoma IMR32 cells (PANK2−/−)
# Assay: Coenzyme A assay in PANK2 silenced cells (LC-MS quantification of free CoA)
# Format: cell-based
# Details: compound added twice (24 h + 24 h), relative to 0.1% DMSO controls
# In short: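 Free intracellular CoA was measured by positive-mode LC-MS/MS of 20% TFA extracts, taking 2 μl per 10^6 cells as intracellular volume. Cells were IMR32 with stable lentiviral PANK2 knockdown, dosed twice 24 h apart (48 h total, 0.1% DMSO). Output is fold increase over vehicle.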
row,Compound,PANK2−/− CoA (Fold Increase): fold increase in Coenzyme A (CoA) levels relative to controls [Fold Increase]
1,"COC(=O)CCNC(=O)[C@@H]1O[P@@](=O)(OCOC(=O)N[C@@H](CSC(=O)C(C)(C)C)C(=O)OCc2ccccc2)OCC1(C)C [2-164, Benzyl N-(((((2S,4R)-4-((3-methoxy-3-oxopropyl)carbamoyl)-5,5-dimethyl-2-oxido-1,3,2-dioxaphosphinan-2-yl)oxy)methoxy)carbonyl)-S-pivaloyl-L-cysteinate]",101.86
2,"COC(=O)CCNC(=O)[C@@H]1O[P@@](=O)(N2CCOCC2)OCC1(C)C [compound 136, methyl 3-((2R,4R)-5,5-dimethyl-2-morpholino-2-oxido-1,3,2-dioxaphosphinane-4-carboxamido)propanoate]",1.93
3,"COC(=O)CCNC(=O)[C@@H]1O[P@@](=O)(Oc2ccc(C#N)cc2)OCC1(C)C [2-116, methyl 3-((2S,4R)-2-(1-cyanophenoxy)-5,5-dimethyl-2-oxido-1,3,2-dioxaphosphinane-4-carboxamido)propanoate]",0.95
4,"CC(C)OC(=O)OCO[P@@]1(=O)OCC(C)(C)[C@H](C(=O)NCCC(=O)OC(C)(C)C)O1 [compound 105, tert-butyl 3-((2S,4R)-2-(((isopropoxycarbonyl)oxy)methoxy)-5,5-dimethyl-2-oxido-1,3,2-dioxaphosphinane-4-carboxamido)propanoate]",4.72
5,"CCN(CC)C(=O)[C@H](Cc1ccccc1)NC(=O)OCOP1(=O)OCC(C)(C)[C@H](C(=O)NCCC(=O)OC)O1 (stereo partly drawn) [2-135, methyl 3-((4R)-2-(((((S)-1-(diethylamino)-1-oxo-3-phenylpropan-2-yl)carbamoyl)oxy)methoxy)-5,5-dimethyl-2-oxido-1,3,2-dioxaphosphinane-4-carboxamido)propanoate]",1.7
6,"COC(=O)CCNC(=O)[C@@H]1O[P@@](=O)(N2CCS(=O)(=O)CC2)OCC1(C)C [compound 137, methyl 3-((2R,4R)-2-(1,1-dioxidothiomorpholino)-5,5-dimethyl-2-oxido-1,3,2-dioxaphosphinane-4-carboxamido) propanoate]",1.76
7,"COC(=O)CCNC(=O)[C@@H]1OP(=O)(OCOC(=O)NC(C)(C)COC(C)=O)OCC1(C)C (stereo partly drawn) [2-152, methyl 3-((4R)-2-((((l-acetoxy-2-methylpropan-2-yl)carbamoyl)oxy)methoxy)-5,5-dimethyl-2-oxido-1,3,2-dioxaphosphinane-4-carboxamido)propanoate]",1.24
8,"CCCC(=O)OCOP1(=O)OCC(C)(C)[C@H](C(=O)NCCC(=O)OC)O1 (stereo partly drawn) [Compound No. 66, (((4R)-4-((3-methoxy-3-oxopropyl)carbamoyl)-5,5-dimethyl-2-oxido-1,3,2-dioxaphosphinan-2-yl)oxy)methyl butyrate]",83.72
9,"COC(=O)CCNC(=O)[C@@H]1O[P@@](=O)(OCn2ccnc2)OCC1(C)C [2-132, methyl 3-((2S,4R)-2-((1H-imidazol-1-yl)methoxy)-5,5-dimethyl-2-oxido-1,3,2-dioxaphosphinane-4-carboxamido)propanoate]",0.93
10,"COC(=O)CCNC(=O)[C@@H]1O[P@@](=O)(OCOC(=O)N[C@@H](CSC(=O)C(C)(C)C)C(=O)OCC(=O)c2ccccc2)OCC1(C)C [2-199, 2-oxo-2-phenylethyl N-(((((2S,4R)-4-((3-methoxy-3-oxopropyl)carbamoyl)-5,5-dimethyl-2-oxido-1,3,2-dioxaphosphinan-2-yl)oxy)methoxy)carbonyl)-S-pivaloyl-L-cysteinate]",1.98
11,"COC(=O)CCNC(=O)[C@@H]1O[P@](=O)(OC(C)OC(=O)C(C)(C)C)OCC1(C)C (stereo partly drawn) [compound 102, 1-(((2R,4R)-4-((3-methoxy-3-oxopropyl)carbamoyl)-5,5-dimethyl-2-oxido-1,3,2-dioxaphosphinan-2-yl)oxy)ethyl pivalate]",2.5
12,"COC(=O)CCNC(=O)[C@@H]1O[P@@](=O)(OCOC(=O)c2cc(C)nn2C)OCC1(C)C [2-182, (((2S,4R)-4-((3-methoxy-3-oxopropyl)carbamoyl)-5,5-dimethyl-2-oxido-1,3,2-dioxaphosphinan-2-yl)oxy)methyl 1,3-dimethyl-lH-pyrazole-5-carboxylate]",24.98
13,"COC(=O)CCNC(=O)[C@@H]1O[P@](=O)(OCOC(=O)c2ccnn2C)OCC1(C)C [2-185, (((2R,4R)-4-((3-methoxy-3-oxopropyl)carbamoyl)-5,5-dimethyl-2-oxido-1,3,2-dioxaphosphinan-2-yl)oxy)methyl 1-methyl-1H-pyrazole-5-carboxylate]",114.15
14,"COC(=O)CCNC(=O)[C@@H]1O[P@@](=O)(OCOC(=O)c2cc(C(C)(C)C)n[nH]2)OCC1(C)C [2-186, (((2S,4R)-4-((3-methoxy-3-oxopropyl)carbamoyl)-5,5-dimethyl-2-oxido-1,3,2-dioxaphosphuian-2-yl)oxy)methyl 3-(tert-butyl)-1H-pyrazole-5-carboxylate]",101.14
15,"COC(=O)CCNC(=O)[C@@H]1O[P@@](=O)(Oc2ccc([N+](=O)[O-])cc2)OCC1(C)C [2-121, methyl 3-((2S,4R)-5,5-dimethyl-2-(4-nitrophenoxy)-2-oxido-1,3,2-dioxaphosphinane-4-carboxamido)propanoate]",1.59
16,"COC(=O)CCNC(=O)[C@@H]1OP(=O)(OCOC(=O)NCCOC(=O)[C@@H](N)C(C)C)OCC1(C)C (stereo partly drawn) [2-195, 2-((((((4R)-4-((3-methoxy-3-oxopropyl)carbamoyl)-5,5-dimethyl-2-oxido-1,3,2-dioxaphosphinan-2-yl)oxy)methoxy)carbonyl)amino)ethyl L-valinate]",1.91
17,"COC(=O)CCNC(=O)[C@@H]1OP(=O)(OCOC(=O)NCCSC(C)=O)OCC1(C)C (stereo partly drawn) [2-136, methyl 3-((4R)-2-((((2-(acetylthio)ethyl)carbamoyl)oxy)methoxy)-5,5-dimethyl-2-oxido-1,3,2-dioxaphosphinane-4-carboxamido)propanoate]",1.41
18,"COC(=O)CCNC(=O)[C@@H]1O[P@@](=O)(OCOC(=O)NC(C)(C)COC(=O)[C@@H](NC(=O)OCc2ccccc2)C(C)C)OCC1(C)C [2-172, 2-((((((2S,4R)-4-((3-methoxy-3-oxopropyl)carbamoyl)-5,5-dimethyl-2-oxido-1,3,2-dioxaphosphinan-2-yl)oxy)methoxy)carbonyl)amino)-2-methylpropyl ((benzyloxy)carbonyl)-L-valinate]",1.95
